Earlier results, collected in US10294217B2, “Fluoroindole derivatives as muscarinic M1 receptor positive allosteric modulators” (Suven Life Sciences Limited, priority 2015, dated 2019).

What was measured:
[1] = cited from earlier work
M1 = M1 (Homo sapiens (Human), UniProt P11229); details: cited from earlier work

SMILES: N#CC1(c2ccccn2)CCN(Cc2cc(C(=O)O)c(=O)n3ccccc23)CC1 [PQCA, 1-{[4-cyano-4-(pyridine-2-yl)piperidin-1-yl]methyl}-4-oxo-4H-quinolizine-3-carboxylic acid]
- gastrointestinal side effects ([1]; at doses equal to or less than a fivefold margin from the minimum effective dose required to improve cognition): no gastrointestinal side effects
- efficacy in preclinical models of cognition ([1]; several preclinical models of cognition): efficacious
- selectivity for M1 over the other muscarinic receptor subtypes (M1): highly selective
